Experimental data published in US20230134376A1, “METHOD FOR QUANTITATIVE IMAGING OF THE METABOLIC STATUS OF A LESION” (priority 2020, published 2023).

Assays:
[1] = system: NADH/NAD+ ratio; experiment: FLIM phasor quantification of NADH/NAD+ ratio (anaerobic glycolysis) in incisional skin wound; assay type: in vivo, mice (C57Bl6/J); settings: for NADH/NAD+ ratio in perilesional area vs untreated condition (in words): comparison between first 10 values of each condition, t-test; for line slope of linear regression of NADH/NAD+ ratio vs untreated (in words): deviation between slopes test; for slope of gradient of NADH/NAD+ ratio vs distance from wound: untreated −0.267±0.06
Source text: FIG. 2: Measurement of anaerobic glycolysis in wound by FLIM quantification of NADH/NAD^+ ratio. Phasor analysis of free and bound NADH fluorescence allows a quantification of their relative increase. A, map of a gradient of NADH/NAD+ ratio (grey). Wound margin is highlighted with a dashed line. All scale bars 100 μm. B, phasor analysis of FLIM NADH fluorescence. NADH region of the phasor plot was divided in five sub-regions along the major axis and each is associated with an intensity value (0-20, 20-40, 40-60, 60-80, 80-100). […] D, NADH/NAD^+ ratio percentage as a function of distance from wound (grey). […] NADH/NAD^+ ratio is lower in perilesional area of DCA-treated mice (grey line vs grey line of D, comparison between first 10 values of each condition, t-test ****, P<0.0001). n=3 mice.
FIG. 8. Effect of the mitochondrial respiratory chain in the measurement of NADH/NAD^+ ratio as expression of glycolysis in wound. A, NADH/NAD^+ ratio percentage as a function of distance from wound. […] NADH/NAD^+ ratio is lower in perilesional area of Antimycin A-treated mice (bottom graph vs grey line for untreated condition, comparison between first 10 values of each condition, t-test, P<0.0001). […] B, map of a gradient of NADH/NAD+ ratio (grey) in wound in untreated (n=4) or mice treated with Rotenone (n=3) and Antimycin A (n=2). Wound margin is highlighted with a dashed line. All scale bars 20 μm.
On day 1 after wounding, FLIM images were acquired with 2PM and stitched to produce lifetime XYZ mosaics (600-1000 μm wide and 200 μm deep) (FIG. 2a). Common FLIM imaging has slow acquisition times, which are required to collect enough photons to reconstruct a time decay curve. This was compensated by the use of a time correlated single-photon counting (TCSPC) 16-channel parallel detector, with an average counting speed of 80 MHz which allowed faster 3D scanning of the mosaic over lesion area^31. The ratio of free to protein-bound NADH has been known to be associated with the ratio of NAD^+ to NADH in small intestine epithelial cells^32 and breast cancer cells^33. Protein-bound NADH has a complex multi-exponential lifetime decay that has been related to its binding to different enzymes, such as malate dehydrogenase and lactate dehydrogenase^34. Standard approaches revolved on a characterization by fitting with a two-exponential curve, corresponding to a short or long lifetime range. This approximation is however misleading because free and protein-bound NADH have common exponential components and the NADH binding sites with different enzymes cannot be considered^32, 35. In fact, in our case this approach was ineffective to discriminate between untreated and DCA-treated mice (FIG. 7). […] Instead, phasor analysis^32, 36 was used. In accordance with a previous report^37, we designed an analysis that first divides the phasor cloud into five regions (FIG. 2b) corresponding to a gradient of prevailing anaerobic glycolysis in regions of lower lifetimes towards a region where more oxidative phosphorylation occurs. Pixels attributed to each region were then associated to discrete values of decreasing intensity, and therefore quantification of pixel intensity on the resulting image was proportional to the relative increase in anaerobic glycolysis. By linearizing images, we obtained a spatial distribution of anaerobic glycolysis from wound profile (FIG. 2c). At lesion margin, gradient of NADH/NAD^+ ratio corresponded to 29.1±0.4% and decreased until to 2.6±0.1% distance (range of 200-500 μm) from the wound. The decrease was evaluated with a linear regression fitting as the simplest fitting model for testing the overall deviation from zero slope curve (linear regression fitting with a slope of −0.050±0.0016 μm^−1; black line with 95% CL bands; deviation from zero slope test, P<0.0001) (FIG. 2d). An increased anaerobic glycolysis around wound margins was also evident in XZ maximum intensity projection images of the maps (FIG. 2e). […]

[2] = system: excisional skin wound; experiment: Full-thickness excisional skin wound healing model, kinetic analysis of wound area; assay type: in vivo, mice (C57BL/6J); settings: for DCA-mediated delayed wound closure (measurement of wound area) compared to control mice: single administration 300 mg/Kg i.p. 1 h prior skin wounding
Protocol: FIG. 1: In vivo relevance of the cell metabolic adaptation in skin repair. The excisional skin wound healing model was used. Left, kinetic analysis of skin wound areas was performed. Values represent mean±SD. Right, representative macroscopic images of untreated and DCA treated mice are shown at the indicated days after wounding. Bar, 5 mm. *P<0.05, **P<0.01; Student's t-test. Untreated, n=8; DCA, n=9. One experiment shown out of two performed with similar number of animals.
In order to determine the relevance of wound acidification in healing outcome in vivo, the pyruvate dehydrogenase kinase (Pdk) inhibitor dichloroacetate (DCA) was used in a model of full-thickness excisional skin wounding to promote glucose oxidation over anaerobic glycolysis, thus interfering with local acidosis.
Excisional model of skin injury. A full-thickness excisional skin injury model was performed as previously described^7. Mice were anesthetized with 10 μL/g of weight of Ketamine (final concentration 10 mg/mL) and Xylazine (final concentration 1 mg/mL) in saline buffer. As described^7, a full-thickness wound (from skin to underlying panniculus carnosus) was generated with disposable biopsy punch (8-mm diameter). Gentamicin was immediately applied to limit gross bacterial infections, not evident from histological examination carried out at different time points of the experiment. Mice were optionally treated with a solution of sodium dichloroacetate (DCA; Sigma-Aldrich Corp.), which was injected i.p. in 10-12 weeks-old C57BL/6J with a dosage of 300 mg/Kg 1 h before skin wounding. PBS or saline were used in control mice. As previously described^7, the skin wounds of each mouse were digitally photographed and measured during wound healing by tracing them on a transparency, calculated with the ImageJ-Fiji software, and the variations in time expressed as a percentage of the initial wound area.

Molecule	anaerobic glycolysis (NADH/NAD+ ratio) at perilesional area ([1]; DCA 300 mg/Kg i.p., 1 h, mean of the first 10 values, untreated 29.1±0.4%, P<0.0001)	gradient steepness, slope of linear regression of NADH/NAD+ ratio vs distance from wound ([1]; DCA 300 mg/Kg i.p., 1 h, untreated −0.050±0.0016, P<0.0001)	NADH lifetime decays in perilesional regions fitted with a two-exponential decay function, treated vs untreated ([1]; Student t-test, P>0.05)	NADH/NAD+ ratio in perilesional area vs untreated condition (in words) [1]	line slope of linear regression of NADH/NAD+ ratio vs untreated (in words) ([1]; P<0.0001)	DCA-mediated delayed wound closure (measurement of wound area) compared to control mice ([2]; day 1, P=0.005)	DCA-mediated delayed wound closure (measurement of wound area) compared to control mice ([2]; day 2, P=0.004)	DCA-mediated delayed wound closure (measurement of wound area) compared to control mice ([2]; day 3, P=0.05)	DCA-mediated delayed wound closure (measurement of wound area) compared to control mice ([2]; day 4, P=0.02)	DCA-mediated delayed wound closure (measurement of wound area) compared to control mice ([2]; day 5, P=0.002)	DCA-mediated delayed wound closure (measurement of wound area) compared to control mice ([2]; day 6, P=0.01)	DCA-mediated delayed wound closure (measurement of wound area) compared to control mice ([2]; day 7, P=0.03)	wound closure curve compared to mice treated with vehicle alone ([2]; single administration 300 mg/Kg 1 h prior skin wounding, n=9 vs n=8)	glycolysis in regions distant from the wound ([1]; Rotenone 20 μM local)	slope of gradient of NADH/NAD+ ratio vs distance from wound ([1]; Rotenone 20 μM local (i.d.) 1 h before imaging, P<0.0001)	fraction of anaerobic glycolysis at wound margin ([1]; Rotenone 20 μM local (i.d.), untreated 20.28±0.41%, P>0.05)	slope of gradient of NADH/NAD+ ratio vs distance from wound ([1]; Antimycin A 5 μM i.d. 1 h before imaging, P<0.0001)	glycolysis at wound margin (NADH/NAD+ ratio) ([1]; Antimycin A 5 μM i.d., untreated 20.28±0.41%, P<0.0001)
O=C([O-])C(Cl)Cl.[Na+] [DCA, sodium dichloroacetate]	8.0±0.2%	−0.035±0.0023 μm^−1	could not show significant differences	lower	reduction in line slope	−28.3%	−27.1%	−22.5%	−24.5%	−30.5%	−20.4%	−17.4%	significantly delayed curve	–	–	–	–	–
C=C(C)[C@H]1Cc2c(ccc3c2O[C@@H]2COc4cc(OC)c(OC)cc4[C@@H]2C3=O)O1 [Rotenone]	–	–	–	no significant decrease in value	significant reduction in line slope	–	–	–	–	–	–	–	–	increased glycolysis in regions distant from the wound	−0.113±0.002 μm^−1	20.08±0.21%	–	–
Antimycin A	–	–	–	lower	reduction in line slope	–	–	–	–	–	–	–	–	–	–	–	−0.046±0.08 μm^−1	8.37±0.49%
